ChEMBL document CHEMBL5143597, “Design and synthesis of novel spirocyclic carboxylic acids as potent and orally bioavailable DGAT1 inhibitors and their biological evaluation” (Bioorg Med Chem Lett, 2022)
One block for each compound: values may come before it.

Experiments:
[1] = molecular target: T1, CYP1A2 (Homo sapiens, UniProt P05177); experiment: Inhibition of recombinant human CYP1A2 at 25 uM by fluorescence plate reader analysis; type: ADME
T1 sequence (P05177 whole entry): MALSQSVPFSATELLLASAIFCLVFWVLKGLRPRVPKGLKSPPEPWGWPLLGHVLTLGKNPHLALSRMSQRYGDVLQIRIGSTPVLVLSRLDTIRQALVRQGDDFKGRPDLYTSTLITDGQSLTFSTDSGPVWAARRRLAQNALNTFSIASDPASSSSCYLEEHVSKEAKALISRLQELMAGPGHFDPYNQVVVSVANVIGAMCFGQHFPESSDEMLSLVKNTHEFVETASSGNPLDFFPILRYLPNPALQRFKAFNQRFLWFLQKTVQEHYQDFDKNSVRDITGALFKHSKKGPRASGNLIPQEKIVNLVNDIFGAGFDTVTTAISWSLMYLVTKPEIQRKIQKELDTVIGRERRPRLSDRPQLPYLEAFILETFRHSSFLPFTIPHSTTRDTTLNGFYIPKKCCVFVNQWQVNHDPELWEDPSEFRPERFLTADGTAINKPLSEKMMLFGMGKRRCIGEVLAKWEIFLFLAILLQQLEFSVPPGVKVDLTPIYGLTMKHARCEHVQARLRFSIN

[2] = Solubility of compound in PBS at pH 4 incubated for 4 hrs under shaking condition by UV absorbance based analysis; type: physicochemical
[3] = Solubility of compound in PBS at pH 7.4 incubated for 4 hrs under shaking condition by UV absorbance based analysis; type: physicochemical
[4] = Solubility of compound in PBS at pH 9 incubated for 4 hrs under shaking condition by UV absorbance based analysis; type: physicochemical
[5] = Solubility of compound in PBS at pH 2 incubated for 4 hrs under shaking condition by UV absorbance based analysis; type: physicochemical
[6] = molecular target: CYP3A4 (Homo sapiens, UniProt P08684); experiment: Inhibition of recombinant human CYP3A4 at 25 uM by fluorescence plate reader analysis; type: ADME
[7] = molecular target: CYP2D6 (Homo sapiens, UniProt P10635); experiment: Inhibition of recombinant human CYP2D6 at 25 uM by fluorescence plate reader analysis; type: ADME
[8] = Drug distribution in C57BL/6 mouse skeletal muscle 10 mg/kg, po and measured at 1 hrs post dose by LC-MS/MS analysis; type: ADME, organism-based, Skeletal muscle tissue; details: read-out: Ct
[9] = Drug distribution in C57BL/6 mouse skeletal muscle 10 mg/kg, po and measured at 2 hrs post dose by LC-MS/MS analysis; type: ADME, organism-based, Skeletal muscle tissue; details: read-out: Ct
[10] = AUC in Wistar rat at 3 mg/kg, iv or 10 mg/kg, po and measured up to 24 hrs by LC-MS/MS analysis; type: ADME, organism-based; parameters: dose 3 mg/kg, time < 24 hrs, route iv; details: in vivo
[11] = Drug distribution in C57BL/6 mouse plasma 10 mg/kg, po and measured at 8 hrs post dose by LC-MS/MS analysis; type: ADME, organism-based
[12] = Drug distribution in C57BL/6 mouse liver 10 mg/kg, po and measured at 2 hrs post dose by LC-MS/MS analysis; type: ADME, organism-based; details: read-out: Ct
[13] = Apparent permeability across apical to basolateral side in MDCK cells at 2.5 uM for 90 mins; type: ADME, cell-based, Canis lupus familiaris; details: dog
[14] = Drug distribution in C57BL/6 mouse adipose tissue 10 mg/kg, po and measured at 8 hrs post dose by LC-MS/MS analysis; type: ADME, organism-based; details: read-out: Ct
[15] = Drug distribution in C57BL/6 mouse adipose tissue 10 mg/kg, po and measured at 1 hrs post dose by LC-MS/MS analysis; type: ADME, organism-based; details: read-out: Ct
[16] = Drug distribution in C57BL/6 mouse skeletal muscle 10 mg/kg, po and measured at 8 hrs post dose by LC-MS/MS analysis; type: ADME, organism-based, Skeletal muscle tissue; details: read-out: Ct
[17] = Cmax in Wistar rat at 3 mg/kg, iv or 10 mg/kg, po and measured up to 24 hrs by LC-MS/MS analysis; type: ADME, organism-based; parameters: dose 3 mg/kg, time < 24 hrs, route iv; details: in vivo
[18] = Metabolic stability in mouse liver microsomes assessed as parent compound remaining at 1 uM and measured at 30 mins by LC-MS/MS analysis; type: ADME, Microsome; details: read-out: Stability
[19] = Cmax in C57BL/6 mouse at 3 mg/kg, iv or 10 mg/kg, po and measured up to 24 hrs by LC-MS/MS analysis; type: ADME, organism-based; parameters: dose 3 mg/kg, time < 24 hrs, route iv; details: in vivo
[20] = Metabolic stability in rat liver microsomes assessed as parent compound remaining at 1 uM and measured at 30 mins by LC-MS/MS analysis; type: ADME, Microsome; details: read-out: Stability
[21] = Plasma protein binding in rat; type: ADME, cell-free; details: read-out: PPB
[22] = Clearance in Wistar rat at 3 mg/kg, iv or 10 mg/kg, po and measured up to 24 hrs by LC-MS/MS analysis; type: ADME, organism-based; details: in vivo
[23] = Volume of distribution at steady state in Wistar rat at 3 mg/kg, iv or 10 mg/kg, po and measured up to 24 hrs by LC-MS/MS analysis; type: ADME, organism-based; details: in vivo, read-out: Vdss
[24] = Drug distribution in C57BL/6 mouse brain 10 mg/kg, po and measured at 1 hrs post dose by LC-MS/MS analysis; type: ADME, organism-based; details: read-out: Ct
[25] = Drug distribution in C57BL/6 mouse liver 10 mg/kg, po and measured at 8 hrs post dose by LC-MS/MS analysis; type: ADME, organism-based; details: read-out: Ct
[26] = Metabolic stability in human liver microsomes assessed as parent compound remaining at 1 uM and measured at 30 mins by LC-MS/MS analysis; type: ADME, Microsome; details: read-out: Stability
[27] = AUC in C57BL/6 mouse at 3 mg/kg, iv or 10 mg/kg, po and measured up to 24 hrs by LC-MS/MS analysis; type: ADME, organism-based; parameters: time < 24 hrs, dose 3 mg/kg, route iv; details: in vivo
[28] = Half life in Wistar rat at 3 mg/kg, iv or 10 mg/kg, po and measured up to 24 hrs by LC-MS/MS analysis; type: ADME, organism-based; details: in vivo
[29] = Oral bioavailability in Wistar rat at 10 mg/kg or 3 mg/kg, iv and measured up to 24 hrs by LC-MS/MS analysis; type: ADME, organism-based; details: in vivo
[30] = Drug distribution in C57BL/6 mouse adipose tissue 10 mg/kg, po and measured at 2 hrs post dose by LC-MS/MS analysis; type: ADME, organism-based; details: read-out: Ct
[31] = Drug distribution in C57BL/6 mouse plasma 10 mg/kg, po and measured at 2 hrs post dose by LC-MS/MS analysis; type: ADME, organism-based
[32] = Clearance in C57BL/6 mouse at 3 mg/kg, iv or 10 mg/kg, po and measured up to 24 hrs by LC-MS/MS analysis; type: ADME, organism-based; details: in vivo
[33] = Drug distribution in C57BL/6 mouse liver 10 mg/kg, po and measured at 1 hrs post dose by LC-MS/MS analysis; type: ADME, organism-based; details: read-out: Ct
[34] = Oral bioavailability in C57BL/6 mouse 10 mg/kg or 3 mg/kg, iv and measured up to 24 hrs by LC-MS/MS analysis; type: ADME, organism-based; details: in vivo
[35] = Plasma protein binding in mouse; type: ADME, cell-free; details: read-out: PPB (converted)
[36] = Tmax in C57BL/6 mouse at 3 mg/kg, iv or 10 mg/kg, po and measured up to 24 hrs by LC-MS/MS analysis; type: ADME, organism-based; details: in vivo
[37] = Drug distribution in C57BL/6 mouse plasma 10 mg/kg, po and measured at 1 hrs post dose by LC-MS/MS analysis; type: ADME, organism-based
[38] = molecular target: hERG (KCNH2) (Homo sapiens, UniProt Q12809); experiment: Displacement of [3H]astemizole from human ERG expressed in HEK293 cell membrane at 30 uM for 2 hrs by Radiometric displacement assay; type: toxicity; details: HEK293 cell membranes that express hERG, probe [3H]astemizole
[39] = Volume of distribution at steady state in C57BL/6 mouse at 3 mg/kg, iv or 10 mg/kg, po and measured up to 24 hrs by LC-MS/MS analysis; type: ADME, organism-based; details: in vivo, read-out: Vdss
[40] = Half life in C57BL/6 mouse at 3 mg/kg, iv or 10 mg/kg, po and measured up to 24 hrs by LC-MS/MS analysis; type: ADME, organism-based; details: in vivo
[41] = Tmax in Wistar rat at 3 mg/kg, iv or 10 mg/kg, po and measured up to 24 hrs by LC-MS/MS analysis; type: ADME, organism-based; details: in vivo
[42] = molecular target: 2-acylglycerol O-acyltransferase 2 (Homo sapiens) (UniProt Q3SYC2); experiment: Inhibition of recombinant human MGAT2 expressed in Sf9 cell membrane assessed as inhibition of triglyceride synthesis at 10 uM for 1 hr by LC-MS-based mass spectrophotometric analysis
[43] = Inhibition of human […] in HepG2 cells assessed as inhibition of triglyceride synthesis at 1 uM incubated for 1 hrs followed by 13C-addition of 13C-oleic acid pre-complexed with fatty acid free BSA for 6 hrs by LC/MS/MS analysis; details: time 7.0 hrs
[44] = Inhibition of human […] in HepG2 cells assessed as inhibition of triglyceride synthesis at 100 nM incubated for 1 hrs followed by 13C-addition of 13C-oleic acid pre-complexed with fatty acid free BSA for 6 hrs by LC/MS/MS analysis; details: time 7.0 hrs
[45] = Inhibition of human […] in HepG2 cells assessed as inhibition of triglyceride synthesis at 300 nM incubated for 1 hrs followed by 13C-addition of 13C-oleic acid pre-complexed with fatty acid free BSA for 6 hrs by LC/MS/MS analysis; details: time 7.0 hrs

CYP3A4, sequence (P08684 whole entry): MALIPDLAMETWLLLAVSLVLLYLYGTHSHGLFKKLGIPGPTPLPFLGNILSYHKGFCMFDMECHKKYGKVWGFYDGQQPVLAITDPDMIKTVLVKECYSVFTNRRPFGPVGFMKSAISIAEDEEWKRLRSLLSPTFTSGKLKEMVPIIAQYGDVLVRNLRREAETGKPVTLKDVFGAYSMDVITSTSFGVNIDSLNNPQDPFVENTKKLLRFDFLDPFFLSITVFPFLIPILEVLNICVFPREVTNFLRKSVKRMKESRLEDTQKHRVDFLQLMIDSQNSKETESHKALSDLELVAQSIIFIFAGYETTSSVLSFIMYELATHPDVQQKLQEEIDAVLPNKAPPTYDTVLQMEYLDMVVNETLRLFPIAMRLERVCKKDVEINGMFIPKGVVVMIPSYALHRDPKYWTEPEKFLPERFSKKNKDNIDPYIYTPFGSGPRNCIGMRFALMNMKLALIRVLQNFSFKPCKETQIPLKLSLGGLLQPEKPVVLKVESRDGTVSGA
CYP2D6, sequence (P10635 whole entry): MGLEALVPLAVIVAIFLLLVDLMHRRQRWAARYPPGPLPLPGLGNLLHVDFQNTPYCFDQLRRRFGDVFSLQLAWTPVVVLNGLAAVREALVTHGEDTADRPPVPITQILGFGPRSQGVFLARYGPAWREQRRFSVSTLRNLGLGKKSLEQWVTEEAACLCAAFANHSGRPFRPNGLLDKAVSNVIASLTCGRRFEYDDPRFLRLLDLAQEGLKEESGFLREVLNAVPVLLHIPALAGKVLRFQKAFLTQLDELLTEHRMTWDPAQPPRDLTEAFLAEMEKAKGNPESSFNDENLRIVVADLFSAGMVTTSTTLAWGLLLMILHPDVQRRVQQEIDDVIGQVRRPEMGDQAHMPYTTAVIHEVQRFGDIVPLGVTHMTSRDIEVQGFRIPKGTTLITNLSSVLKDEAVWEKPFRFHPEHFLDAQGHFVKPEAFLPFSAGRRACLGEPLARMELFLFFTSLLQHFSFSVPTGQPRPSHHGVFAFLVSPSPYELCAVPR
hERG (KCNH2), sequence (Q12809 whole entry): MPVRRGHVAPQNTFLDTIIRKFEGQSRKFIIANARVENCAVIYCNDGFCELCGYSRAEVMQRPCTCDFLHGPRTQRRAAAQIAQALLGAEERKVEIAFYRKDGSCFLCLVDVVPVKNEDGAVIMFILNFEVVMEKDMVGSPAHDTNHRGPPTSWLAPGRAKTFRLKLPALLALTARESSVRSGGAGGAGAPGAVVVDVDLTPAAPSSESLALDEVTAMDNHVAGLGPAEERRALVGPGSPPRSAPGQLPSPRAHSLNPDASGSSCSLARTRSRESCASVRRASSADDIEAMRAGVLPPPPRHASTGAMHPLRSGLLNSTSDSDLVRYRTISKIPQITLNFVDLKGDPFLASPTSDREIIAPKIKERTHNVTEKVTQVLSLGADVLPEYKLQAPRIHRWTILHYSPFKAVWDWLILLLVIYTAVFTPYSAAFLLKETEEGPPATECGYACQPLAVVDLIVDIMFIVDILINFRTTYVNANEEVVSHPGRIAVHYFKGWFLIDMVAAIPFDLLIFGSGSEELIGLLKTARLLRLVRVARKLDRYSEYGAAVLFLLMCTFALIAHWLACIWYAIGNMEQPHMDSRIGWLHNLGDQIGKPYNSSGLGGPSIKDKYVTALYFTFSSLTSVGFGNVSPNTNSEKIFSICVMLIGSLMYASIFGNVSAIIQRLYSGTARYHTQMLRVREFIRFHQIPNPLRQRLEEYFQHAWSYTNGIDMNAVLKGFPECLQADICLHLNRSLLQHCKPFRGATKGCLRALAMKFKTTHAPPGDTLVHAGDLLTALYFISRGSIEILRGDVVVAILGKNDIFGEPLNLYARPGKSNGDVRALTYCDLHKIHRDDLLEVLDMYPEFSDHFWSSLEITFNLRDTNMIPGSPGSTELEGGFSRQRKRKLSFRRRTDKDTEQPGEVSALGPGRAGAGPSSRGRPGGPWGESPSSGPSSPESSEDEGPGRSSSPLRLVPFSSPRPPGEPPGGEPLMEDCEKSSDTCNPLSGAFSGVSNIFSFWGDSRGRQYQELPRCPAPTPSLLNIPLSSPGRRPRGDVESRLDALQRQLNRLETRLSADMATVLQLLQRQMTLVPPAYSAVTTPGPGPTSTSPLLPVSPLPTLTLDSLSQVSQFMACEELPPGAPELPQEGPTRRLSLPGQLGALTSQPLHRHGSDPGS
2-acylglycerol O-acyltransferase 2 (Homo sapiens), sequence (Q3SYC2 whole entry, looked up): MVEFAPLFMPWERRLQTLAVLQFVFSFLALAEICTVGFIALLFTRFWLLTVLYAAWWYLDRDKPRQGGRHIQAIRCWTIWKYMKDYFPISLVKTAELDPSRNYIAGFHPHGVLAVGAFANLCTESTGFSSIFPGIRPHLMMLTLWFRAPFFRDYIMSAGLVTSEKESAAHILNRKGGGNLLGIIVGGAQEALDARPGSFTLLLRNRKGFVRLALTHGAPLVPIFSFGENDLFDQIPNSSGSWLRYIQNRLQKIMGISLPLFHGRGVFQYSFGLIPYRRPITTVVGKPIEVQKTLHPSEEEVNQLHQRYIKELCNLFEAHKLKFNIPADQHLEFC

inhibition at 25 µM [1]: 12%
solubility at 4 h [2]: 36 µM
solubility at 4 h [3]: 1060 µM
solubility at 4 h [4]: 723 µM
solubility at 4 h [5]: 179 µM
inhibition at 25 µM [6]: 10%
SMILES: O=C(Nc1ccc(N2CCC3(CC2)CC(C(=O)[O-])C3)nc1)c1nnc(Nc2ccc(F)c(F)c2)o1.[Na+]

inhibition at 25 µM [1]: 13%
inhibition at 25 µM [7]: 5%
solubility at 4 h [2]: < 6 µM
solubility at 4 h [3]: < 6 µM
solubility at 4 h [4]: 9 µM
solubility at 4 h [5]: < 6 µM
inhibition at 25 µM [6]: 17%
SMILES: O=C([O-])CC1CCC2(CC1)CCC(c1ccc(NC(=O)c3nnc(Nc4ccc(F)c(F)c4)o3)cn1)CC2.[Na+] (configuration not stated)

concentration at 1 h [8]: 160 nM
concentration at 2 h [9]: 60 nM
inhibition at 25 µM [7]: 10%
AUC at 24 h [10]: 17 µM·h
concentration at 8 h [11]: 360 nM
concentration at 2 h [12]: 71600 nM
Papp A→B at 1.5 h, 2.5 µM [13]: 4.9 ×10⁻⁶ cm/s
concentration at 8 h [14]: 130 nM
concentration at 1 h [15]: 470 nM
concentration at 8 h [16]: 30 nM
Cmax [17]: 14000 nM
remaining at 0.5 h, 1 µM [18]: 96%
Cmax [19]: 1400 nM
remaining at 0.5 h, 1 µM [20]: 100%
fraction unbound [21]: 0.01
clearance [22]: 6.2 mL/min/kg
Vd [23]: 0.53 L/kg
concentration at 1 h [24]: 20 nM
concentration at 8 h [25]: 17800 nM
remaining at 0.5 h, 1 µM [26]: 95%
AUC at 24 h [27]: 2.8 µM·h
half-life [28]: 3.6 h
bioavailability [29]: 100%
concentration at 2 h [30]: 350 nM
concentration at 2 h [31]: 1660 nM
clearance [32]: 34 mL/min/kg
concentration at 1 h [33]: 142000 nM
bioavailability [34]: 30%
fraction unbound [35]: 0.02
Tmax [36]: 0.25 h
concentration at 1 h [37]: 5900 nM
Vd [39]: 4.4 L/kg
half-life [40]: 3.6 h
Tmax [41]: 1 h
SMILES: O=C(Nc1ccc(C2CCC3(CC2)CC(C(=O)O)C3)cc1)c1nnc(Nc2ccc(F)c(F)c2)o1 (configuration not stated)
inhibition at 2 h, 30 µM [38]: 16%

inhibition [42]: 16%
inhibition [43]: 90%
inhibition [44]: 55%
inhibition [45]: 82%
SMILES: O=C(O)CC1CCC2(CC1)CCC(c1ccc(NC(=O)c3nnc(Nc4ccc(F)c(F)c4)o3)cn1)CC2 (configuration not stated)
